Test results: patent publication US20130123357A1, “Methods for Providing Enhanced Resveratrol Activity Using 4-Acetoxy-Resveratrol” (BRIGHAM YOUNG UNIVERSITY, priority 2010, published 2013)
Marks after values point to notes of the source that are not given here.

Columns and labels:
[1] = tested on: Tissue inhibitor of metalloproteinases 1; assay: Gene array qPCR, human dermal equivalent: TIMP1; format: cell-based; settings: 1.0% 4AR in DMSO, human skin equivalent, 24 hours, mRNA by qPCR
Source text: (§1) In this gene array experiment, we examined the ability of 4AR at a one percent concentration in DMSO (where 100% DMSO served as the vehicle) to either stimulate or inhibit several important genes and quantify directly the transcribed messenger RNA (mRNA) levels by Taqman real time PCR. The test material was placed onto a biological barrier (human dermal equivalent) using a MatTek “ready-to-use” in vitro organotypic tissue equivalent, based on well-documented and validated protocols, using the EpiDerm™ Model EPI-200 Kit. The MatTek kits uses normal (non-transformed) donated human cells as the basis for all of its tissue equivalents. These cells are grown (cultured) in standard Millipore Millicell™ Single Well Tissue Culture Plate Inserts at the air liquid interface or ALI. Apical (top) surface of tissue is exposed to air allowing for direct application of test articles. […] Once the 4 AR test material penetrated the human skin barrier equivalent the gene chip was activated and subsequently mRNA levels were quantified and the results represent stimulation or inhibition of a specific gene.
(§2) To investigate the effects of 4AR on the expression of genes associated with the extracellular matrix (ECM) of the skin, qPCR experiments were conducted using the tissue cultures (model system described above) with subsequent quantification of mRNA levels from […] tissue/cells. […]

Protein Kinase C alpha = assay: Gene array qPCR, human dermal equivalent: Protein Kinase C alpha; format: cell-based; settings: 1.0% 4AR in DMSO, human skin equivalent, 24 hours, mRNA by qPCR
Source text: as §1, §2

[2] = tested on: HBEGF (Heparin-binding EGF-like growth factor); assay: Gene array qPCR, human dermal equivalent: HBEGF; format: cell-based; settings: 1.0% 4AR in DMSO, human skin equivalent, 24 hours, mRNA by qPCR
Source text: as §1, §2

Fibrillin = assay: Gene array qPCR, human dermal equivalent: Fibrillin; format: cell-based; settings: 1.0% 4AR in DMSO, human skin equivalent, 24 hours, mRNA by qPCR
Source text: as §1, §2

[3] = target: T1, prostate type I 5α-reductase enzyme (Rattus norvegicus, UniProt P24008); assay: Prostate 5α-reductase enzyme activity of treated rats; format: in vivo; settings: DMSO controls 8.7 + 0.6
T1 construct: from tissue; host or cells: prostate of adult male Long-Evans rats dosed with 4AR for 21 days
T1 sequence (P24008 1-259): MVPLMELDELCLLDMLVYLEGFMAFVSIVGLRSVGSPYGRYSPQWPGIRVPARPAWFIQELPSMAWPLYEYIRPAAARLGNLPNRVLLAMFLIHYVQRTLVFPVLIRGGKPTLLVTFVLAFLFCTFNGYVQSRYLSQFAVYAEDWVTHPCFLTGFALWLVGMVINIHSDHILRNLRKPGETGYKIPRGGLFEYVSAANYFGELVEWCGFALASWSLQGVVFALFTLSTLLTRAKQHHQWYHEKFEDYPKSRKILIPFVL
Experimental: (§3) Adult male Long-Evans rats were administered 4AR for 21 days. DMSO served as the control and 4AR was dissolved into DMSO at the following concentrations: 5.0 mg/kg body weight, 20.0 mg/kg body weight and 90.0 mg/kg body weight (n=12 per group).
Since, the 5a-reductase enzyme (which converts testosterone to 5a-dihydrotestosterone) is important in prostate health in reference to benign prostatic hyperplasia (BPH) and the treatment and prevention of prostate cancer, we determined if prostate type I 5α-reductase enzyme activity was impacted by these treatments by quantifying the enzymatic rates of each animal as described above (in this study there were approximately 10 animals per treatment group).

[4] = tested on: FosB (FBJ murine osteosarcoma viral oncogene homolog B); assay: Gene array qPCR, human dermal equivalent: FosB; format: cell-based; settings: 1.0% 4AR in DMSO, human skin equivalent, 24 hours, mRNA by qPCR
Source text: as §1, §2

[5] = tested on: TGF (transforming growth factor) beta type II receptor; assay: Gene array qPCR, human dermal equivalent: TGF beta type II receptor; format: cell-based; settings: 1.0% 4AR in DMSO, human skin equivalent, 24 hours, mRNA by qPCR
Source text: as §1, §2

Laminin 1B = assay: Gene array qPCR, human dermal equivalent: Laminin 1B; format: cell-based; settings: 1.0% 4AR in DMSO, human skin equivalent, 24 hours, mRNA by qPCR
Source text: as §1, §2

[6] = tested on: Fos (FBJ murine osteosarcoma viral oncogene); assay: Gene array qPCR, human dermal equivalent: Fos; format: cell-based; settings: 1.0% 4AR in DMSO, human skin equivalent, 24 hours, mRNA by qPCR
Source text: as §1, §2

[7] = tested on: PCNA (Proliferating Cell Nuclear Antigen); assay: Gene array qPCR, human dermal equivalent: PCNA; format: cell-based; settings: 1.0% 4AR in DMSO, human skin equivalent, 24 hours, mRNA by qPCR
Source text: as §1, §2

Type IV collagen alpha 1 = assay: Gene array qPCR, human dermal equivalent: Type IV collagen alpha 1; format: cell-based; settings: 1.0% 4AR in DMSO, human skin equivalent, 24 hours, mRNA by qPCR
Source text: as §1, §2

[8] = tested on: IGF1 (Insulin-like growth factor 1); assay: Gene array qPCR, human dermal equivalent: IGF1; format: cell-based; settings: 1.0% 4AR in DMSO, human skin equivalent, 24 hours, mRNA by qPCR
Source text: as §1, §2

Type IV collagen alpha 2 = assay: Gene array qPCR, human dermal equivalent: Type IV collagen alpha 2; format: cell-based; settings: 1.0% 4AR in DMSO, human skin equivalent, 24 hours, mRNA by qPCR
Source text: as §1, §2

[9] = tested on: Superoxide dismutase 2, mitochondrial; assay: Gene array qPCR, human dermal equivalent: SOD2; format: cell-based; settings: 1.0% 4AR in DMSO, human skin equivalent, 24 hours, mRNA by qPCR
Source text: as §1, §2

[10] = Body weight gain and food/water intake in rats, 21 days; format: in vivo, adult male Long-Evans rats
Experimental: as §3
After 10 days of receiving the treatments there was a significant decrease in body weight gain, by an average of approximately 17 grams, in the 90.0 mg/kg vs. the control values (525.0+5.1 vs. 542.1+6.2 grams, respectively. After 20 days on the treatments there was a significant decrease in body weight gain, by approximately 14 grams, in the 20.0 mg/kg vs. control values (566.0+4.7 vs. 551.8+3.7 grams). Finally, there was an even greater significant decrease in body weight gain between the 90.0 mg/kg vs. control values after 20 days on the treatments representing a 54.2 grams decrease (or 566.0+4.7 vs. 511.8+4.1 grams).

Desmoglein 3 = assay: Gene array qPCR, human dermal equivalent: Desmoglein 3; format: cell-based; settings: 1.0% 4AR in DMSO, human skin equivalent, 24 hours, mRNA by qPCR
Source text: as §1, §2

CC(=O)Oc1ccc(C=Cc2cc(O)cc(O)c2)cc1 [4AR, 3,5-dihydroxy-4′-acetoxy stilbene]
Tissue inhibitor of metalloproteinases 1 increased by [1]: 2.5-fold | Protein Kinase C alpha increased by (Protein Kinase C alpha): 2.7-fold | HBEGF increased by [2]: 1.9-fold | Fibrillin increased by (Fibrillin): 1.3-fold with | 5α-reductase enzyme activity ([3]; 5 mg/kg body weight): 4.6 + 0.4* pmol/hour incubation/mg of protein | 5α-reductase enzyme activity ([3]; 20 mg/kg body weight): 3.3 + 0.3* pmol/hour incubation/mg of protein | 5α-reductase enzyme activity ([3]; 90 mg/kg body weight): 2.0 + 0.2* pmol/hour incubation/mg of protein | FosB increased by [4]: 8.2-fold | TGF beta type II receptor increased by [5]: 1.7-fold | Laminin 1B increased by (Laminin 1B): 1.4-fold with | Fos increased by [6]: 3.4-fold | PCNA increased by [7]: 5.4-fold with | Type IV collagen alpha 1 increased by (Type IV collagen alpha 1): 1.7-fold | IGF1 increased by [8]: 2.6-fold | IV collagen alpha 2 increased by (Type IV collagen alpha 2): 1.8-fold | Superoxide dismutase 2, mitochondrial increased by [9]: 1.7-fold | decrease in body weight gain vs. control ([10]; 20.0 mg/kg, after 20 days): approximately 14 grams | body weight ([10]; 20.0 mg/kg, after 20 days, control 566.0+4.7): 551.8+3.7 grams | decrease in body weight gain vs. control ([10]; 90.0 mg/kg, after 10 days): approximately 17 grams | body weight ([10]; 90.0 mg/kg, after 10 days, control 542.1+6.2): 525.0+5.1 grams | decrease in body weight gain vs. control ([10]; 90.0 mg/kg, after 20 days): 54.2 grams | body weight ([10]; 90.0 mg/kg, after 20 days, control 566.0+4.7): 511.8+4.1 grams | food/water intake among the treatment groups ([10]; 5.0, 20.0 and 90.0 mg/kg body weight, 21 days, vs DMSO control): no significant differences | Desmoglein 3 decreased by (Desmoglein 3): by 1.9-fold
